Data on seven compounds can be found in ChEMBL document CHEMBL1151033, “Tricyclic cephems as inhibitors of human leukocyte elastase. Furo[3,4-c]cepham sulfones” (Bioorg Med Chem Lett, 1995).

SMILES strings stand for the structures.

A short description of data set [1]: Hydrolytic stability at 37 degrees Celsius in 50 mM phosphate buffer (2 % v/v MeCN as solubilising vehicle) at pH 7.4. Format: physicochemical.
Data set [2] deals with T1, Neutrophil elastase (Homo sapiens) (UniProt P08246).
T1 sequence (whole entry): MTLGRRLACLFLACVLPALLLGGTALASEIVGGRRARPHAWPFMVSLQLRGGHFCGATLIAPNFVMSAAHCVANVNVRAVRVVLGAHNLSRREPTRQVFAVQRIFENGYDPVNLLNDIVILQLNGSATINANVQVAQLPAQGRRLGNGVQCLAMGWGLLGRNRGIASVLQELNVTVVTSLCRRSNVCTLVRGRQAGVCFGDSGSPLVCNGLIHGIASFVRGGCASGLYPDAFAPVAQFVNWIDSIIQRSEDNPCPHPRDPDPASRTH
In words: Inhibitory activity against human leukocyte elastase (HLE) expressed as second order inhibition rate constant.

`CO[C@H]1C(=O)N2c3c(coc3-c3ccccc3)CS(=O)(=O)[C@H]12` gave a half-life in data set [1] of 71 h. Also, the k on in data set [2] was 2000 M⁻¹ s⁻¹. For `CO[C@H]1C(=O)N2c3c(coc3C(C)(C)C)[C@]3(CC3(c3ccccc3)c3ccccc3)S(=O)(=O)[C@H]12`, in that order: 520 h and 8800 M⁻¹ s⁻¹. Taken in the same sequence, the figures for `CO[C@H]1C(=O)N2c3c(coc3C(C)(C)C)[C@@H](C)S(=O)(=O)[C@H]12` were 140 h and 1000 M⁻¹ s⁻¹. Regarding `CO[C@H]1C(=O)N2c3c(coc3C(C)(C)C)CS(=O)(=O)[C@H]12`, the half-life in data set [1] was 180 h. Moreover, the k on in data set [2] was determined as 500 M⁻¹ s⁻¹.

`CO[C@H]1C(=O)N2c3c(coc3C(C)(C)C)[C@@H](CC(=O)OC(C)(C)C)S(=O)(=O)[C@H]12` yielded a k on in data set [2] of 1100 M⁻¹ s⁻¹. `CO[C@H]1C(=O)N2C(C(=O)c3ccccc3)=C(C)CS(=O)(=O)[C@H]12` had a half-life in data set [1] of 26 h. The same measure, in the same setting: as for `CO[C@H]1C(=O)N2C(C(=O)C(C)(C)C)=C(C)CS(=O)(=O)[C@H]12`, the figure is 104 h.
